According to ChEMBL document CHEMBL3994622, “Design and synthesis of new RAF kinase-inhibiting antiproliferative quinoline derivatives. Part 2: Diarylurea derivatives” (Eur J Med Chem, 2017):

Legend:
Format in all cases: functional
MCF7 = test: Growth inhibition of human MCF7 cells assessed as cell growth at 1 uM incubated for 48 hrs by sulforhodamine B assay relative to control; conditions: MCF7, 48 h, read-out: Activity
OVCAR-4 [1] = test: Growth inhibition of human OVCAR4 cells assessed as cell growth at 0.01 uM incubated for 48 hrs by sulforhodamine B assay relative to control; conditions: OVCAR-4, 48 h, read-out: Activity
SK-OV-3 = test: Growth inhibition of human SKOV3 cells assessed as cell growth at 0.01 uM incubated for 48 hrs by sulforhodamine B assay relative to control; conditions: SK-OV-3, 48 h, read-out: Activity
SN12C = test: Growth inhibition of human SN12C cells assessed as cell growth at 1 uM incubated for 48 hrs by sulforhodamine B assay relative to control; conditions: read-out: Activity
CCRF-CEM = test: Growth inhibition of human CCRF-CEM cells assessed as cell growth at 0.01 uM incubated for 48 hrs by sulforhodamine B assay relative to control; conditions: read-out: Activity
SR [2] = test: Growth inhibition of human SR cells assessed as cell growth at 10 uM incubated for 48 hrs by sulforhodamine B assay relative to control; conditions: read-out: Activity
SK-MEL-5 [3] = test: Growth inhibition of human SK-MEL-5 cells assessed as cell growth at 0.01 uM incubated for 48 hrs by sulforhodamine B assay relative to control; conditions: SK-MEL-5, 48 h, read-out: Activity
TK-10 = test: Growth inhibition of human TK10 cells assessed as cell growth at 0.01 uM incubated for 48 hrs by sulforhodamine B assay relative to control; conditions: TK-10, 48 h, read-out: Activity
SF-539 [4] = test: Growth inhibition of human SF539 cells assessed as cell growth at 100 uM incubated for 48 hrs by sulforhodamine B assay relative to control; conditions: SF-539, 48 h, read-out: Activity
PC-3 [5] = test: Growth inhibition of human PC3 cells assessed as cell growth at 0.1 uM incubated for 48 hrs by sulforhodamine B assay relative to control; conditions: PC-3, 48 h, read-out: Activity
UACC-62 = test: Growth inhibition of human UACC62 cells assessed as cell growth at 1 uM incubated for 48 hrs by sulforhodamine B assay relative to control; conditions: UACC-62, 48 h, read-out: Activity
NCI-H522 = test: Growth inhibition of human NCI-H522 cells assessed as cell growth at 0.01 uM incubated for 48 hrs by sulforhodamine B assay relative to control; conditions: NCI-H522, 48 h, read-out: Activity
IGROV-1 = test: Growth inhibition of human IGROV1 cells assessed as cell growth at 0.1 uM incubated for 48 hrs by sulforhodamine B assay relative to control; conditions: IGROV-1, 48 h, read-out: Activity
UO-31 [6] = test: Growth inhibition of human UO31 cells assessed as cell growth at 0.01 uM incubated for 48 hrs by sulforhodamine B assay relative to control; conditions: UO-31, 48 h, read-out: Activity
RXF 393 [7] = test: Growth inhibition of human RXF393 cells assessed as cell growth at 0.01 uM incubated for 48 hrs by sulforhodamine B assay relative to control; conditions: RXF 393, 48 h, read-out: Activity
MDA-MB-435 = test: Growth inhibition of human MDA-MB-435 cells assessed as cell growth at 3 uM incubated for 48 hrs by sulforhodamine B assay relative to control; conditions: MDA-MB-435, 48 h, read-out: Activity
OVCAR-4 [8] = test: Growth inhibition of human OVCAR4 cells assessed as cell growth at 0.003 uM incubated for 48 hrs by sulforhodamine B assay relative to control; conditions: OVCAR-4, 48 h, read-out: Activity
SF-539 [9] = test: Growth inhibition of human SF539 cells assessed as cell growth at 30 uM incubated for 48 hrs by sulforhodamine B assay relative to control; conditions: SF-539, 48 h, read-out: Activity
SR [10] = test: Growth inhibition of human SR cells assessed as cell growth at 3 uM incubated for 48 hrs by sulforhodamine B assay relative to control; conditions: read-out: Activity
NCI-H460 = test: Growth inhibition of human NCI-H460 cells assessed as cell growth at 3 uM incubated for 48 hrs by sulforhodamine B assay relative to control; conditions: NCI-H460, 48 h, read-out: Activity
PC-3 [11] = test: Growth inhibition of human PC3 cells assessed as cell growth at 0.03 uM incubated for 48 hrs by sulforhodamine B assay relative to control; conditions: PC-3, 48 h, read-out: Activity
ACHN = test: Growth inhibition of human ACHN cells assessed as cell growth at 0.3 uM incubated for 48 hrs by sulforhodamine B assay relative to control; conditions: read-out: Activity
M14 = test: Growth inhibition of human M14 cells assessed as cell growth at 0.03 uM incubated for 48 hrs by sulforhodamine B assay relative to control; conditions: M14, 48 h, read-out: Activity
SW-620 = test: Growth inhibition of human SW620 cells assessed as cell growth at 3 uM incubated for 48 hrs by sulforhodamine B assay relative to control; conditions: SW-620, 48 h, read-out: Activity
Malme-3M = test: Growth inhibition of human MALME-3M cells assessed as cell growth at 0.3 uM incubated for 48 hrs by sulforhodamine B assay relative to control; conditions: read-out: Activity
HCC 2998 = test: Growth inhibition of human HCC2998 cells assessed as cell growth at 30 uM incubated for 48 hrs by sulforhodamine B assay relative to control; conditions: HCC 2998, 48 h, read-out: Activity
OVCAR-3 = test: Growth inhibition of human OVCAR3 cells assessed as cell growth at 30 uM incubated for 48 hrs by sulforhodamine B assay relative to control; conditions: OVCAR-3, 48 h, read-out: Activity
SF-539 [12] = test: Growth inhibition of human SF539 cells assessed as cell growth at 0.3 uM incubated for 48 hrs by sulforhodamine B assay relative to control; conditions: SF-539, 48 h, read-out: Activity
SNB-75 = test: Growth inhibition of human SNB75 cells assessed as cell growth at 30 uM incubated for 48 hrs by sulforhodamine B assay relative to control; conditions: SNB-75, 48 h, read-out: Activity
UO-31 [13] = test: Growth inhibition of human UO31 cells assessed as cell growth at 0.3 uM incubated for 48 hrs by sulforhodamine B assay relative to control; conditions: UO-31, 48 h, read-out: Activity
HT-29 = test: Growth inhibition of human HT-29 cells assessed as cell growth at 0.3 uM incubated for 48 hrs by sulforhodamine B assay relative to control; conditions: HT-29, 48 h, read-out: Activity
MOLT-4 = test: Growth inhibition of human MOLT4 cells assessed as cell growth at 0.3 uM incubated for 48 hrs by sulforhodamine B assay relative to control; conditions: MOLT-4, 48 h, read-out: Activity
HL-60(TB) = test: Growth inhibition of human HL-60(TB) cells assessed as cell growth at 0.03 uM incubated for 48 hrs by sulforhodamine B assay relative to control; conditions: HL-60, 48 h, read-out: Activity
SK-MEL-5 [14] = test: Growth inhibition of human SK-MEL-5 cells assessed as cell growth at 30 uM incubated for 48 hrs by sulforhodamine B assay relative to control; conditions: SK-MEL-5, 48 h, read-out: Activity
RXF 393 [15] = test: Growth inhibition of human RXF393 cells assessed as cell growth at 30 uM incubated for 48 hrs by sulforhodamine B assay relative to control; conditions: RXF 393, 48 h, read-out: Activity

`COc1cc2cc(Oc3ccc(NC(=O)Nc4cc(C(F)(F)F)cc(C(F)(F)F)c4)cc3)c(C)nc2cc1OC` gave a growth at 1 µM (MCF7) of 35%, a growth at 0.01 µM (OVCAR-4 [1]) of 85% and a growth at 0.01 µM (SK-OV-3) of 91%. It also gave a growth at 1 µM (SN12C) of 35%, a growth at 0.01 µM (CCRF-CEM) of 97% and a growth at 10 µM (SR [2]) of -20%. It also gave a growth at 0.01 µM (SK-MEL-5 [3]) of 100%, a growth at 0.01 µM (TK-10) of 96% and a growth at 100 µM (SF-539 [4]) of -74%. It also gave a growth at 0.1 µM (PC-3 [5]) of 89%, a growth at 1 µM (UACC-62) of 35% and a growth at 0.01 µM (NCI-H522) of 92%. It also gave a growth at 0.1 µM (IGROV-1) of 95%, a growth at 0.01 µM (UO-31 [6]) of 82% and a growth at 0.01 µM (RXF 393 [7]) of 100%.

Compound `Cc1nc2cc(O)c(O)cc2cc1Oc1ccc(NC(=O)Nc2ccc(Cl)c(Cl)c2)cc1` has a growth at 3 µM (MDA-MB-435) of 71%, a growth at 0.003 µM (OVCAR-4 [8]) of 97% and a growth at 30 µM (SF-539 [9]) of -19%. The growth at 3 µM (SR [10]) was 28%, the growth at 3 µM (NCI-H460) was 96% and the growth at 0.03 µM (PC-3 [11]) was 97%. The growth at 0.3 µM (ACHN) was 107%, the growth at 0.03 µM (M14) was 89% and the growth at 3 µM (SW-620) was 57%. The growth at 0.3 µM (Malme-3M) was 81%, the growth at 30 µM (HCC 2998) was -51% and the growth at 30 µM (OVCAR-3) was -29%. It also gave a growth at 0.3 µM (SF-539 [12]) of 99%, a growth at 30 µM (SNB-75) of -4% and a growth at 0.3 µM (UO-31 [13]) of 102%. For the same compound, the growth at 0.3 µM (HT-29) was 103%, the growth at 0.3 µM (MOLT-4) was 106% and the growth at 0.03 µM (HL-60(TB)) was 106%. It also gave a growth at 30 µM (SK-MEL-5 [14]) of -47% and a growth at 30 µM (RXF 393 [15]) of 7%.
